Results published in patent US20120195842A1, “ENHANCED PHOTOSTABILITY OF SUNCARE CO[…]” (priority 2008, published 2012).

Experiment: Photostability of avobenzone in thin films of sunscreen compositions irradiated with solar simulated UVR
Assay type: physicochemical
Conditions: menthyl anthranilate at all levels, composition with octisalate, homosalate and avobenzone, up to 4 hours
Description: To investigate its stabilizing effect of menthyl anthranilate on the photostability of avobenzone, menthyl anthranilate (meradimate) was incorporated into a fixed sunscreen composition at different levels. Thin film strips of each composition were then irradiated with solar simulated UVR for up to 4 hours as described in detail below. The compositions were then analyzed for the presence of avobenzone after a given period of time. • Formula compositions were prepared as follows: […]
Assessment of avobenzone's photostability was performed on four different compositions that differed only in the amount of menthyl anthranilate that were used in the formulation.
The photostability of avobenzone in each emulsion was assessed after exposure to 80 joules of UV radiation (which corresponds to about 4 hours of outside sun exposure at noon in Memphis, Tenn. in June) using the method described below. […] Even 1% menthyl anthranilate improved avobenzone's photostability by approximately 6% after 2 hours and by 17% after 4 hours of exposure. […]
Avobenzone's photostability was assessed by spreading known weights (14-18 mg) of emulsions onto glass microscope slides at an application density of about 2 mg/cm^2. […] UVR flux was measured using an OL 754 Spectroradiometer (Optronics laboratories, Inc., Orlando, Fla.) with an 8 inch integrating sphere. […]

With CC1CCC(C(C)C)C(OC(=O)c2ccccc2N)C1 (stereo not shown) [menthyl anthranilate] the “effect on photostability of avobenzone to ultraviolet radiation (UVR)” value was “improves photostability of avobenzone”.
